Activity calls are given as the source filed them. The calls are words filed in the database; no cut-off is given here.
Tested on: Nippostrongylus brasiliensis
Assay: Antihelminthic activity against L4 parasitant stage of Nippostrongylus brasiliensis
Format: functional, organism-based

| Compound | Activity | EC50 [µM] |
| --- | --- | --- |
| C=C(C)C(O)CCC(=C)[C@@]1(O)CC[C@](C)(Br)[C@@H](Cl)C1 (relative stereo) | inactive | – |
| C=C(C)C(O)CCC(=C)[C@]1(O)CC[C@](C)(Br)[C@@H](Cl)C1 (relative stereo) | inactive | – |
| C[C@@H]1CC[C@]23[C@H]1CC[C@@]2(C)C[C@@](C)(O)[C@H]3C | inactive | – |
| C[C@@H]1CC[C@]23[C@H]1CC[C@@]2(C)C[C@H](C)[C@]3(C)O | inactive | – |
| C=C(C[C@H](O)C=C(C)C)[C@@]1(O)CC[C@](C)(Br)[C@@H](Cl)C1 | – | 110 |
